Experimental data: the NIST ThermoML archive (doi:10.1007/s10765-009-0667-2)

Assay: xn = mol fraction of the nth substance listed
Conditions: 101 kPa, Liquid; for mass density: Vibrating tube method

c1ccccc1 [benzene] + Cc1ccccc1
Conditions | mass density, 308.15 K [kg/m3] | mass density, 313.15 K [kg/m3] | viscosity, 308.15 K [mPa·s] | viscosity, 313.15 K [mPa·s]
x1 = 0.0403 | 853.1 | 848.6 | 0.4943 | 0.468
x1 = 0.1393 | 853.7 | 849.1 | 0.4998 | 0.4681
x1 = 0.2551 | 854.5 | 849.9 | 0.4968 | 0.4693
x1 = 0.3116 | 855 | 850.3 | 0.4968 | 0.469
x1 = 0.3863 | 855.7 | 850.9 | 0.4977 | 0.4705
x1 = 0.5033 | 856.6 | 851.8 | 0.503 | 0.4747
x1 = 0.6139 | 857.8 | 852.9 | 0.5078 | 0.4785
x1 = 0.7301 | 859.1 | 854.1 | 0.5166 | 0.4813
x1 = 0.8551 | 860.8 | 855.7 | 0.5227 | 0.487
x1 = 1 | 862.9 | 857.7 | 0.5272 | 0.4942

C1CCCCCCC1 [cyclooctane] + c1ccccc1
Conditions | mass density, 308.15 K [kg/m3] | mass density, 313.15 K [kg/m3] | viscosity, 308.15 K [mPa·s] | viscosity, 313.15 K [mPa·s]
x2 = 0 | 823.6 | 819.7 | 1.803 | 1.636
x2 = 0.1004 | 824.9 | 821 | 1.494 | 1.368
x2 = 0.1826 | 826.4 | 822.4 | 1.294 | 1.193
x2 = 0.3035 | 829 | 824.9 | 1.072 | 0.993
x2 = 0.408 | 831.9 | 827.6 | 0.9222 | 0.859
x2 = 0.5122 | 835.2 | 830.9 | 0.8085 | 0.7548
x2 = 0.5243 | 835.7 | 831.4 | 0.7963 | 0.7437
x2 = 0.6891 | 842.7 | 838.1 | 0.6667 | 0.6274
x2 = 0.7904 | 848.1 | 843.3 | 0.6042 | 0.5677
x2 = 0.9001 | 855.1 | 850.1 | 0.5651 | 0.5263

CCc1ccccc1 [ethylbenzene] + c1ccccc1
Conditions | mass density, 308.15 K [kg/m3] | mass density, 313.15 K [kg/m3] | viscosity, 308.15 K [mPa·s] | viscosity, 313.15 K [mPa·s]
x2 = 0 | 853.7 | 849.5 | 0.5652 | 0.5294
x2 = 0.0877 | 854.1 | 849.8 | 0.5584 | 0.5282
x2 = 0.1855 | 854.6 | 850.2 | 0.5563 | 0.5234
x2 = 0.295 | 855.2 | 850.8 | 0.5472 | 0.5172
x2 = 0.4137 | 856 | 851.5 | 0.5392 | 0.5096
x2 = 0.498 | 856.6 | 852.1 | 0.5382 | 0.508
x2 = 0.5965 | 857.5 | 852.8 | 0.5382 | 0.5039
x2 = 0.7108 | 858.7 | 853.9 | 0.5308 | 0.4996
x2 = 0.7904 | 859.7 | 854.8 | 0.5263 | 0.4954
x2 = 0.8983 | 861.2 | 856.2 | 0.5309 | 0.4949

C1CCCCCCC1 [cyclooctane] + CCCCCCC
Conditions | mass density, 308.15 K [kg/m3] | mass density, 313.15 K [kg/m3] | viscosity, 308.15 K [mPa·s] | viscosity, 313.15 K [mPa·s]
x2 = 0 | 823.6 | 819.7 | 1.803 | 1.636
x2 = 0.0938 | 807.7 | 803.8 | 1.405 | 1.288
x2 = 0.1897 | 793 | 789.1 | 1.125 | 1.044
x2 = 0.2896 | 777.5 | 773.6 | 0.9246 | 0.8605
x2 = 0.3979 | 760.8 | 756.8 | 0.7613 | 0.7127
x2 = 0.4949 | 746.1 | 742.2 | 0.6608 | 0.6207
x2 = 0.5964 | 730.9 | 726.9 | 0.5725 | 0.5389
x2 = 0.6919 | 716.7 | 712.7 | 0.5028 | 0.4754
x2 = 0.7795 | 703.6 | 699.7 | 0.4487 | 0.4256
x2 = 0.8934 | 686.9 | 682.8 | 0.4002 | 0.3754
